The structures appear in SMILES notation. Where two headings read alike, the source gives them in different places.

Data set [1] in a line: Solubility of bases in propylene glycol monomethyl ether acetate (shaken overnight, visual inspection). The class given is physicochemical. Particulars: for Solubility, 0.2 wt. % in PGMEA: 0.2 wt. % solution in propylene glycol monomethyl ether acetate, shaken ~20 hours at room temperature; for Solubility, 0.2 wt. % in PGMEA / Solubility, 0.1 wt. % in PGMEA: visual inspection; for Solubility, 0.1 wt. % in PGMEA: diluted to 0.10 wt. % in propylene glycol monomethyl ether acetate; for Solubility in the solvent of the photoresist (propylene glycol monomethyl ether acetate): concentration not given. On the procedure: Several bases were evaluated for solubility in propylene glycol monomethyl ether acetate, the most commonly used solvent in photoresist compositions. A 0.2 wt. % solution of each base was made with propylene glycol monomethyl ether acetate in glass vials. The vials were then placed on a shaker and allowed to shake overnight (˜20 hours) at room temperature. The vials were then visually inspected. If the vials were clear without any haze, cloudiness or solids or crystals at the bottom of the vial, then the base was considered soluble in propylene glycol monomethyl ether acetate. If the vials had haze, cloudiness or solids or crystals at the bottom of the vial, the base was considered not soluble in propylene glycol monomethyl ether acetate. For those vials which contained base at 0.2 wt. % and were considered not soluble, additional propylene glycol monomethyl ether acetate was added to dilute the solution to 0.15 wt. %, or 0.10 wt. %. The diluted vials were then evaluated as discussed above. No further dilutions were made beyond 0.10 wt. %.

Data set [2] can be described thus: Solubility of bases in the antireflective coating solvent 4-hydroxy-4-methyl-2-pentanone. In kind it is physicochemical. The text has this:
For this experiment, base A is aminophylline, which is considered an insoluble base in the solvent of the photoresist (in this experiment, propylene glycol monomethyl ether acetate) but soluble in the solvent of the antireflective coating (in this experiment, 4-hydroxy-4-methyl-2-pentanone); base B is tridodecylamine, which is soluble in both the solvent of the photoresist (in this experiment, propylene glycol monomethyl ether acetate) and the solvent of the antireflective coating (in this experiment, 4-hydroxy-4-methyl-2-pentanone). The bases were evaluated alone or as mixtures in the antireflective coatings. The antireflective coatings were prepared using a co-polymer of benzyl methacrylate—mevalonic lactone methacrylate. The photoacid generator (PAG) was triphenylsulfonium nonaflate, and the aforementioned base(s) and 4-hydroxy-4-methyl-2-pentanone as the solvent completed the antireflective coating formulations. The PAG content was kept at 1.7 wt. % of total solids of the antireflective coating formulations and the antireflective coating formulations were 1.65% total solids.

In the case of `Nc1nc(N)c2[nH]cnc2n1` [2,6-Diaminopurine], in data set [1], the “Solubility, 0.2 wt. % in PGMEA” value is recorded as “Not soluble” and the “Solubility, 0.1 wt. % in PGMEA” value is listed as “Not soluble”.

Consider `CN(C)c1ncnc2nc[nH]c12` [6-(Dimethylamino)purine], for which, in data set [1], the “Solubility, 0.2 wt. % in PGMEA” value is on record as “Not soluble” and the “Solubility, 0.1 wt. % in PGMEA” value was “Soluble”.

Consider `Cn1c(=O)c2[nH]c(Cl)nc2n(C)c1=O` [8-Chlorotheophyllline], for which, in data set [1], the “Solubility, 0.2 wt. % in PGMEA” value was “Not soluble” and the “Solubility, 0.1 wt. % in PGMEA” value is recorded as “Not soluble”.

On to `Nc1ncnc2nc[nH]c12` [Adenine], for which, in data set [1], the “Solubility, 0.2 wt. % in PGMEA” value was “Not soluble” and the “Solubility, 0.1 wt. % in PGMEA” value is on record as “Not soluble”.

On to `Cn1c(=O)c2[nH]cnc2n(C)c1=O` [Aminophylline, reference compound], for which the “Solubility in the solvent of the antireflective coating (4-hydroxy-4-methyl-2-pentanone)” value in data set [2] (concentration not given) is given as “soluble”. In data set [1], the “Solubility, 0.2 wt. % in PGMEA” value is listed as “Not soluble”; the “Solubility in the solvent of the photoresist (propylene glycol monomethyl ether acetate)” value is “insoluble”; the “Solubility, 0.1 wt. % in PGMEA” value is “Not soluble”.

On to `Nc1nc2nc[nH]c2c(=O)[nH]1` [Guanine], for which, in data set [1], the “Solubility, 0.2 wt. % in PGMEA” value is “Not soluble” and the “Solubility, 0.1 wt. % in PGMEA” value is on record as “Not soluble”.

For the compound `c1ncc2[nH]cnc2n1` [Purine], in data set [1], the “Solubility, 0.2 wt. % in PGMEA” value was “Not soluble” and the “Solubility, 0.1 wt. % in PGMEA” value is “Not soluble”.

As to `Cn1c(=O)c2[nH]cnc2n(C)c1=O` [Theophylline, reference compound], in data set [1], the “Solubility, 0.2 wt. % in PGMEA” value was “Not soluble” and the “Solubility, 0.1 wt. % in PGMEA” value is listed as “Soluble”.

Take `CCCCCCCCCCCCN(CCCCCCCCCCCC)CCCCCCCCCCCC` [tridodecylamine, reference compound]: the “Solubility in the solvent of the antireflective coating (4-hydroxy-4-methyl-2-pentanone)” value in data set [2] was “soluble”. Besides, the “Solubility in the solvent of the photoresist (propylene glycol monomethyl ether acetate)” value in data set [1] is on record as “soluble”.
